Laboratory results from patent US20170050957A1, “4-AMINO-6-(HETEROCYCLIC)PICOLINATES AND 6-AMINO-2-(HETEROCYCLIC)PYRIMIDINE-4-CARBOXYLATES AND THEIR USE AS HERBICIDES” (Dow AgroSciences LLC, priority 2013, published 2017).
Like-named read-outs stand apart in the source and are kept apart here.

What was measured:
[1] = system: Key Broadleaf Weed and Crop Species; experiment: Post-emergent Test II herbicidal activity (Table 15); assay type: in vivo; conditions: post-emergence, 336 h, 14 d; for pest or weed control at 35 g/ha: 35 g ai/ha; for pest or weed control at 70 g/ha: 70 g ai/ha; for pest or weed control at 140 g/ha: 140 g ai/ha
In short: (§1)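 Post-emergence spray; seedlings 7-21 d old, 1st-2nd true leaf; 187 L/ha; serial rates 1×-1/16×; solvent blank controls; subirrigated; visual % injury at 14 d.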

[2] = system: Key Grass and Sedge Weeds as well as Grass Crops; experiment: Post-emergent Test II herbicidal activity (Table 16); assay type: in vivo; conditions: post-emergence, 336 h, 14 days after application; for pest or weed control at 35 g/ha: 35 g ai/ha; for pest or weed control at 70 g/ha: 70 g ai/ha; for pest or weed control at 140 g/ha: 140 g ai/ha
In short: as §1

[3] = Abutilon theophrasti, velvetleaf (Abutilon theophrasti), read-out: Visual Growth Reduction (%) 14 Days After Application, ABUTH
[4] = Amaranthus retroflexus, redroot pigweed (Amaranthus retroflexus), read-out: Visual Growth Reduction (%) 14 Days After Application, AMARE
[5] = Brassica napus, oilseed rape, canola (Brassica napus), read-out: Visual Growth Reduction (%) 14 Days After Application, BRSNN
[6] = Chenopodium album, lambsquarters (Chenopodium album), read-out: Visual Growth Reduction (%) 14 Days After Application, CHEAL
[7] = Euphorbia heterophylla, wild poinsettia (Euphorbia heterophylla), read-out: Visual Growth Reduction (%) 14 Days After Application, EPHHL
[8] = Helianthus annuus, sunflower (Helianthus annuus), read-out: Visual Growth Reduction (%) 14 Days After Application, HELAN
[9] = Cyperus esculentus, yellow nutsedge (Cyperus esculentus), read-out: Visual Growth Reduction (%) 14 Days After Application CYPES
[10] = Echinochloa crus-galli, barnyardgrass (Echinochloa crus-galli), read-out: Visual Growth Reduction (%) 14 Days After Application ECHCG
[11] = Oryza sativa, rice (Oryza sativa), read-out: Visual Growth Reduction (%) 14 Days After Application ORYSA
[12] = Setaria faberi, giant foxtail (Setaria faberi), read-out: Visual Growth Reduction (%) 14 Days After Application SETFA
[13] = Triticum aestivum, wheat, spring (Triticum aestivum), read-out: Visual Growth Reduction (%) 14 Days After Application TRZAS
[14] = Zea mays, maize, corn (Zea mays), read-out: Visual Growth Reduction (%) 14 Days After Application ZEAMX

COC(=O)c1nc(-c2cc3sccc3cc2F)cc(N)c1Cl [Compound 3.17]
pest or weed control at 35 g/ha [1, 3]: 0 to 29% | pest or weed control at 70 g/ha [1, 3]: 45 to 59% | pest or weed control at 140 g/ha [1, 3]: 60 to 74% | pest or weed control at 35 g/ha [1, 4]: 75 to 84% | pest or weed control at 70 g/ha [1, 4]: 95 to 100% | pest or weed control at 140 g/ha [1, 4]: 95 to 100% | pest or weed control at 35 g/ha [1, 5]: 0 to 29% | pest or weed control at 70 g/ha [1, 5]: 0 to 29% | pest or weed control at 140 g/ha [1, 5]: 60 to 74% | pest or weed control at 35 g/ha [1, 6]: 85 to 94% | pest or weed control at 70 g/ha [1, 6]: 95 to 100% | pest or weed control at 140 g/ha [1, 6]: 95 to 100% | pest or weed control at 35 g/ha [1, 7]: 45 to 59% | pest or weed control at 70 g/ha [1, 7]: 60 to 74% | pest or weed control at 140 g/ha [1, 7]: 75 to 84% | pest or weed control at 35 g/ha [1, 8]: 0 to 29% | pest or weed control at 70 g/ha [1, 8]: 0 to 29% | pest or weed control at 140 g/ha [1, 8]: 30 to 44% | pest or weed control at 35 g/ha [2, 9]: 0 to 29% | pest or weed control at 70 g/ha [2, 9]: 0 to 29% | pest or weed control at 140 g/ha [2, 9]: 0 to 29% | pest or weed control at 35 g/ha [2, 10]: 45 to 59% | pest or weed control at 70 g/ha [2, 10]: 60 to 74% | pest or weed control at 140 g/ha [2, 10]: 95 to 100% | pest or weed control at 35 g/ha [2, 11]: 0 to 29% | pest or weed control at 70 g/ha [2, 11]: 0 to 29% | pest or weed control at 140 g/ha [2, 11]: 0 to 29% | pest or weed control at 35 g/ha [2, 12]: 0 to 29% | pest or weed control at 70 g/ha [2, 12]: 0 to 29% | pest or weed control at 140 g/ha [2, 12]: 30 to 44% | pest or weed control at 35 g/ha [2, 13]: 0 to 29% | pest or weed control at 70 g/ha [2, 13]: 0 to 29% | pest or weed control at 140 g/ha [2, 13]: 0 to 29% | pest or weed control at 35 g/ha [2, 14]: 30 to 44% | pest or weed control at 70 g/ha [2, 14]: 60 to 74% | pest or weed control at 140 g/ha [2, 14]: 75 to 84% | melting point: 70 °C
